PubChem BioAssay (NCI)
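Briefly, cells in 96-well plates were exposed to five compound concentrations for 48 h, and endpoints were estimated by linear interpolation. GI50 is the concentration that inhibits growth by half. TGI denotes the concentration required for complete inhibition of growth.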

Assays:
Assay in all cases: NCI anticancer screen, dose series, 48 h; in the data active = GI50 below about 0.43 µM; inactive = the rest
[1] = test system: 786-0 renal
[2] = test system: A498 renal
[3] = test system: A549 NSCLC
[4] = test system: ACHN renal
[5] = test system: BT-549 breast
[6] = test system: CAKI-1 renal
[7] = test system: CCRF-CEM leukemia
[8] = test system: COLO 205 colon
[9] = test system: DU-145 prostate
[10] = test system: EKVX NSCLC
[11] = test system: HCC-2998 colon
[12] = test system: HCT-116 colon
[13] = test system: HCT-15 colon
[14] = test system: HL-60(TB) leukemia
[15] = test system: HOP-62 NSCLC
[16] = test system: HOP-92 NSCLC
[17] = test system: HS 578T breast
[18] = test system: HT29 colon
[19] = test system: IGROV1 ovarian
[20] = test system: K-562 leukemia
[21] = test system: KM12 colon
[22] = test system: LOX IMVI melanoma
[23] = test system: M14 melanoma
[24] = test system: MALME-3M melanoma
[25] = test system: MCF7 breast
[26] = test system: MDA-MB-231 breast
[27] = test system: MDA-MB-435
[28] = test system: MOLT-4 leukemia
[29] = test system: NCI-H226 lung
[30] = test system: NCI-H23 lung
[31] = test system: NCI-H460 lung
[32] = test system: NCI-H522 lung
[33] = test system: NCI/ADR-RES ovarian
[34] = test system: OVCAR-3 ovarian
[35] = test system: OVCAR-4 ovarian
[36] = test system: OVCAR-5 ovarian
[37] = test system: OVCAR-8 ovarian
[38] = test system: PC-3 prostate
[39] = test system: RPMI-8226 leukemia
[40] = test system: RXF 393 renal
[41] = test system: SF-268 CNS
[42] = test system: SF-295 CNS
[43] = test system: SF-539 CNS
[44] = test system: SK-MEL-2 melanoma
[45] = test system: SK-MEL-28 melanoma
[46] = test system: SK-MEL-5 melanoma
[47] = test system: SK-OV-3 ovarian
[48] = test system: SN12C renal
[49] = test system: SNB-19 CNS
[50] = test system: SNB-75 CNS
[51] = test system: SW-620 colon
[52] = test system: T-47D breast
[53] = test system: TK-10 renal
[54] = test system: U251 CNS
[55] = test system: UACC-257 melanoma
[56] = test system: UACC-62 melanoma
[57] = test system: UO-31 renal

COc1cc(/C=C/C(=O)c2cc(OC)c(OC)c(OC)c2)ccc1OCc1ccccc1
5.75 µM: TGI [4]
25.3 µM: TGI [44]
43.4 µM: TGI [15]
7.5 µM: TGI [54]
4.28 µM: TGI [43]
51.6 µM: TGI [10]
6.07 µM: TGI [40]
6.16 µM: TGI [31]
11.1 µM: TGI [46]
7.57 µM: TGI [16]
> 100 µM: TGI [1] | TGI [3] | TGI [6] | TGI [7] | TGI [9] | TGI [12] | TGI [17] | TGI [18] | TGI [19] | TGI [20] | TGI [21] | TGI [23] | TGI [24] | TGI [25] | TGI [26] | TGI [27] | TGI [29] | TGI [34] | TGI [35] | TGI [38] | TGI [39] | TGI [41] | TGI [42] | TGI [47] | TGI [51] | TGI [52] | TGI [53] | TGI [57]
13.7 µM: TGI [36]
6.59 µM: TGI [48]
3.62 µM: TGI [50]
5.28 µM: TGI [13]
8.69 µM: TGI [49]
4.09 µM: TGI [22]
7.23 µM: TGI [30]
3.43 µM: TGI [32]
30.6 µM: TGI [45]
73.4 µM: TGI [28]
26.2 µM: TGI [8]
68.9 µM: TGI [55]
7.61 µM: TGI [14]
4.51 µM: TGI [56]
inactive: GI50 [1] 4.71 µM | GI50 [2] 15.8 µM | GI50 [3] 2.77 µM | GI50 [4] 2.16 µM | GI50 [5] 1.83 µM | GI50 [6] 4.11 µM | GI50 [7] 3 µM | GI50 [8] 3.34 µM | GI50 [9] 3.55 µM | GI50 [10] 4.33 µM | GI50 [11] 2.8 µM | GI50 [12] 2.73 µM | GI50 [13] 1.75 µM | GI50 [14] 2.14 µM | GI50 [15] 3.49 µM | GI50 [16] 1.88 µM | GI50 [17] 4.06 µM | GI50 [18] 2.66 µM | GI50 [19] 3.06 µM | GI50 [20] 2.59 µM | GI50 [21] 3.6 µM | GI50 [22] 1.69 µM | GI50 [23] 4.77 µM | GI50 [24] 5.08 µM | GI50 [25] 2.53 µM | GI50 [26] 2.83 µM | GI50 [27] 3.2 µM | GI50 [28] 3.01 µM | GI50 [29] 4.16 µM | GI50 [30] 2.37 µM | GI50 [31] 2.33 µM | GI50 [32] 1.45 µM | GI50 [33] 2.82 µM | GI50 [34] 3.75 µM | GI50 [35] 2.84 µM | GI50 [36] 2.67 µM | GI50 [37] 2.16 µM | GI50 [38] 3.16 µM | GI50 [39] 1.9 µM | GI50 [40] 2.18 µM | GI50 [41] 3.65 µM | GI50 [42] 3.16 µM | GI50 [43] 2.04 µM | GI50 [44] 3.7 µM | GI50 [45] 3.79 µM | GI50 [46] 2.65 µM | GI50 [47] 4.2 µM | GI50 [48] 1.94 µM | GI50 [49] 2.64 µM | GI50 [50] 1.7 µM | GI50 [51] 3.61 µM | GI50 [52] 2.96 µM | GI50 [53] 4.97 µM | GI50 [54] 2.36 µM | GI50 [55] 3.29 µM | GI50 [56] 1.82 µM | GI50 [57] 2.2 µM
58.9 µM: TGI [2]
9.4 µM: TGI [33]
3.9 µM: TGI [5]
5.8 µM: TGI [37]
7.91 µM: TGI [11]
